According to the NIST ThermoML archive (doi:10.1016/j.jct.2009.05.004):

Assay: mn = molality of the nth substance listed, in mol/kg
Settings: Liquid, Vibrating tube method

[Br-].[Br-].[Zn+2] [zinc bromide] + CCO
Settings | mass density [kg/m3]
293.13 K, 1123 kPa, m1 = 0.4384 | 858.07
293.13 K, 1223 kPa, m1 = 0.9305 | 929.75
293.13 K, 5128 kPa, m1 = 0.4384 | 861.43
293.13 K, 9704 kPa, m1 = 0.4384 | 865.15
293.13 K, 9924 kPa, m1 = 0.9305 | 937.03
293.14 K, 1141 kPa, m1 = 1.887 | 1060.17
293.14 K, 4877 kPa, m1 = 0.9305 | 932.86
293.14 K, 5033 kPa, m1 = 1.887 | 1063.5
293.14 K, 5064 kPa, m1 = 0.3043 | 841.35
293.14 K, 9847 kPa, m1 = 1.887 | 1067.49
293.14 K, 10023 kPa, m1 = 0.05681 | 807.27
293.14 K, 14682 kPa, m1 = 0.4384 | 869.05
293.14 K, 14840 kPa, m1 = 0.9305 | 940.94
293.14 K, 14855 kPa, m1 = 1.887 | 1071.5
293.14 K, 20011 kPa, m1 = 0.9305 | 944.89
293.14 K, 30124 kPa, m1 = 0.3043 | 860.11
293.14 K, 34814 kPa, m1 = 0.9305 | 955.31
293.14 K, 39888 kPa, m1 = 0.9305 | 958.57
293.14 K, 39952 kPa, m1 = 0.05681 | 828.27
293.15 K, 1045 kPa, m1 = 0.3043 | 838
293.15 K, 1235 kPa, m1 = 0.05681 | 800.05
293.15 K, 1523 kPa, m1 = 1.49 | 1007.63
293.15 K, 5024 kPa, m1 = 0.05681 | 803.22
293.15 K, 5032 kPa, m1 = 1.49 | 1010.62
293.15 K, 10123 kPa, m1 = 0.3043 | 845.43
293.15 K, 10214 kPa, m1 = 1.49 | 1014.92
293.15 K, 15624 kPa, m1 = 0.05681 | 811.63
293.15 K, 15624 kPa, m1 = 1.49 | 1019.23
293.15 K, 19877 kPa, m1 = 0.4384 | 872.96
293.15 K, 19914 kPa, m1 = 1.887 | 1075.41
293.15 K, 20035 kPa, m1 = 1.49 | 1022.63
293.15 K, 20124 kPa, m1 = 0.3043 | 853.06
293.15 K, 24809 kPa, m1 = 0.4384 | 876.51
293.15 K, 25007 kPa, m1 = 0.9305 | 948.56
293.15 K, 25014 kPa, m1 = 1.49 | 1026.32
293.15 K, 25232 kPa, m1 = 1.887 | 1079.35
293.15 K, 25412 kPa, m1 = 0.05681 | 818.77
293.15 K, 29867 kPa, m1 = 0.4384 | 880
293.15 K, 29915 kPa, m1 = 0.9305 | 952.01
293.15 K, 29924 kPa, m1 = 1.49 | 1029.82
293.15 K, 29995 kPa, m1 = 1.887 | 1082.75
293.15 K, 34624 kPa, m1 = 1.49 | 1033.04
293.15 K, 34775 kPa, m1 = 0.4384 | 883.24
293.15 K, 35015 kPa, m1 = 0.05681 | 825.19
293.15 K, 35078 kPa, m1 = 1.887 | 1086.23
293.15 K, 35624 kPa, m1 = 0.3043 | 863.74
293.15 K, 39932 kPa, m1 = 1.49 | 1036.53
293.16 K, 1293 kPa, m1 = 0.1696 | 817.98
293.16 K, 5239 kPa, m1 = 0.1696 | 821.27
293.16 K, 9897 kPa, m1 = 0.1696 | 825.03
293.16 K, 14684 kPa, m1 = 0.1696 | 828.75
293.16 K, 15201 kPa, m1 = 0.3043 | 849.37
293.16 K, 19951 kPa, m1 = 0.1696 | 832.68
293.16 K, 20035 kPa, m1 = 0.05681 | 814.92
293.16 K, 30348 kPa, m1 = 0.1696 | 839.91
293.16 K, 35296 kPa, m1 = 0.1696 | 843.12
293.16 K, 39385 kPa, m1 = 0.4384 | 886.15
293.16 K, 39747 kPa, m1 = 1.887 | 1089.29
293.16 K, 39967 kPa, m1 = 0.1696 | 846
293.16 K, 39985 kPa, m1 = 0.3043 | 866.49
293.17 K, 24971 kPa, m1 = 0.1696 | 836.26
293.17 K, 25845 kPa, m1 = 0.3043 | 857.16
293.17 K, 30025 kPa, m1 = 0.05681 | 821.93
298.14 K, 5021 kPa, m1 = 0.9305 | 928.53
298.14 K, 5024 kPa, m1 = 0.4384 | 857.08
298.14 K, 5036 kPa, m1 = 0.05681 | 799.14
298.14 K, 5036 kPa, m1 = 0.1696 | 816.98
298.14 K, 15024 kPa, m1 = 1.887 | 1066.84
298.14 K, 15106 kPa, m1 = 0.4384 | 865.31
298.14 K, 20014 kPa, m1 = 0.3043 | 849.06
298.14 K, 25032 kPa, m1 = 0.9305 | 944.53
298.14 K, 25035 kPa, m1 = 0.4384 | 872.78
298.14 K, 35024 kPa, m1 = 0.05681 | 821.61
298.14 K, 39921 kPa, m1 = 0.05681 | 824.72
298.15 K, 1024 kPa, m1 = 0.9305 | 925.02
298.15 K, 1024 kPa, m1 = 1.887 | 1055.01
298.15 K, 1025 kPa, m1 = 0.4384 | 853.63
298.15 K, 1201 kPa, m1 = 0.1696 | 813.7
298.15 K, 1324 kPa, m1 = 0.05681 | 795.94
298.15 K, 1324 kPa, m1 = 1.49 | 1002.7
298.15 K, 1542 kPa, m1 = 0.3043 | 834.12
298.15 K, 5214 kPa, m1 = 1.49 | 1006.13
298.15 K, 10024 kPa, m1 = 0.4384 | 861.25
298.15 K, 10025 kPa, m1 = 0.05681 | 803.29
298.15 K, 10025 kPa, m1 = 0.1696 | 821.11
298.15 K, 10025 kPa, m1 = 0.3043 | 841.24
298.15 K, 10032 kPa, m1 = 0.9305 | 932.79
298.15 K, 10035 kPa, m1 = 1.49 | 1010.24
298.15 K, 10035 kPa, m1 = 1.887 | 1062.75
298.15 K, 15621 kPa, m1 = 1.49 | 1014.82
298.15 K, 19956 kPa, m1 = 0.05681 | 811.06
298.15 K, 20004 kPa, m1 = 0.9305 | 940.76
298.15 K, 20014 kPa, m1 = 0.1696 | 828.87
298.15 K, 20031 kPa, m1 = 1.887 | 1070.82
298.15 K, 20035 kPa, m1 = 1.49 | 1018.3
298.15 K, 25621 kPa, m1 = 0.3043 | 853.17
298.15 K, 25621 kPa, m1 = 1.49 | 1022.52
298.15 K, 29914 kPa, m1 = 0.05681 | 818.2
298.15 K, 29942 kPa, m1 = 1.887 | 1078.29
298.15 K, 29954 kPa, m1 = 1.49 | 1025.66
298.15 K, 29986 kPa, m1 = 0.1696 | 835.96
298.15 K, 30041 kPa, m1 = 0.4384 | 876.29
298.15 K, 30065 kPa, m1 = 0.9305 | 948.14
298.15 K, 34625 kPa, m1 = 1.49 | 1028.92
298.15 K, 34985 kPa, m1 = 0.3043 | 859.62
298.15 K, 35104 kPa, m1 = 0.4384 | 879.69
298.15 K, 39924 kPa, m1 = 1.49 | 1032.44
298.15 K, 39974 kPa, m1 = 1.887 | 1085.32
298.15 K, 39985 kPa, m1 = 0.4384 | 882.8
298.15 K, 39985 kPa, m1 = 0.9305 | 954.77
